Drawing on US9000028B2, “Indole and indazole compounds as an inhibitor of cellular necrosis” (LG Life Sciences Ltd., priority 2007, dated 2015), this text covers EC50 for 38 compounds.

One test concerns primary hepatocytes isolated from rats. The test can be described thus: Hepatocyte protective effect against substances deriving hepatocyte toxicity (WST-1 viability). Type of test: cell-based. Particulars: Rattus norvegicus, Hepatocyte, doxorubicin, 24-48 h, read-out: EC50, cell protective effects against doxorubicin in hepatocytes. How it is done:
Various endogenous/exogenous attacks on the cells trigger the mechanisms of cell death which is broadly classified into two types, i.e. apoptosis or necrosis. Using these cell death mechanisms, in the present experimental example, primary hepatocytes isolated from rats were treated with drugs which were clinically shown to result in serious side-effects of hepatocyte toxicity or various chemicals which derive cell death, and the compounds synthesized in the Examples were estimated for their hepatocyte protective effects, after 24-48 h. The substances used to derive hepatocyte death include CCl4, ActD, H2O2, doxorubicin, anti-Fas Ab/Actinomycin D, acetaminophen, EtOH, CdCl2, palmitate, stearate, cyclophosphamide, terfenadine, diclofenac, simvastatin, and adefovir. Primary hepatocytes were isolated using the method of Seglen PO (Experimental Cell Research 74 (1972) pp 450-454). Briefly, hepatocytes were isolated according to the two-step collagenase perfusion method, and dead cells were removed by low speed (500 rpm) centrifugation for 10 min using percoll gradient (Kreamer B L etc, In Vitro Cellular & Developmental Biology 22 (1986) pp 201-211). During this step, the viability of cells was maintained 90% or above. The cells were suspended in HepatoZYME media (Gibco BRL), and the number of cells was counted. 1.5×10^4 cells in 100 μl were placed into the collagen-coated 96-well plate (BD biocoat), and adhered on the bottom for 3-4 h.
In order to assess the hepatocyte protective effect, above adhered cells were pretreated with the Example compounds for 30 min. At this time, the concentration of the Example compounds were serially diluted by 2-fold or 3-fold over 5 steps starting from 30 uM, 10 uM or 1 uM depending on the experiments, and the final concentration of DMSO was adjusted to 0.2%. 30 min after the treatment by compounds, cells were treated by the substances deriving hepatocyte death or hepatotoxic drugs at the concentrations indicated in Table 1. After 24-48 h, the viability of cells was determined to estimate the hepatocyte protective effects. The viability of cells was determined using WST-1 (MK-400, […]) method by the absorbance at 440 nm. Hepatocyte protective effects of the Example compounds were represented by “EC50,” which was calculated from measured values. “EC50” herein means the concentration of the compound at which 50% of maximum protective effect is observed in the experiment.
(In general: Tetrazolium dyes change colour on reduction, which living cells bring about.)
For the compound `CNC(=O)C1CCC(Nc2cc(Cl)cc3cc(-c4ccccc4)[nH]c23)CC1` (centres unmarked) [Example 105, 4-(5-Chloro-2-phenyl-1H-indol-7-yl)amino-cyclohexanecarboxylic acid methylamide], the EC50 came to 70 nM. As to `COc1ccc(-c2n[nH]c3c(NCC4CCOCC4)cccc23)cc1` [Example 159, [3-(4-Methoxyphenyl)-1H-indazol-7-yl)-(tetrahydropyran-4-ylmethyl)-amine], the EC50 came out at 110 nM. Same read-out and setting: the value for `O=C(O)Cc1cc(NC2CCS(=O)(=O)CC2)c2[nH]c(-c3ccccc3)cc2c1` [Example 35, 2-[2-Phenyl-7-(1,1-dioxo-tetrahydro-thiopyran-4-yl)amino-1H-indol-5-yl]-acetic acid] was 630 nM. As for `O=S1(=O)CCC(N2CCC(Nc3cc(F)cc4cc(-c5ccccc5)[nH]c34)CC2)CC1` [Example 99, (5-Fluoro-2-phenyl-1H-indol-7-yl)-[1-(1,1-dioxo-tetrahydrothiopyran-4-yl)-piperidin-4-yl]-amine], the half-maximal effective concentration (EC50) amounted to 200 nM. On the same count and under the same terms, to `Cc1cc(NC2CCCC2)c2[nH]c(-c3ccccn3)cc2c1` [Example 1, Cyclopentyl-[5-methyl-2-(pyridin-2-yl)-1H-indol-7-yl]-amine] belongs 100 nM; to `O=C1CN(Cc2c(-c3ccccc3)[nH]c3c(NC4CCOCC4)cc(Cl)cc23)CCN1` [Example 69, (Tetrahydropyran-4-yl)-(5-chloro-3-(2-oxo-piperazin-4-yl)methyl-2-phenyl-1H-indol-7-yl)-amine], 355 nM; to `OCc1cc(NC2CCCC2)c2[nH]c(-c3ccccc3)cc2c1` [Example 29, Cyclopentyl-[5-hydroxymethyl-2-phenyl-1H-indol-7-yl]-amine], 70 nM.

Turning to `Cc1cc(NC2CCOCC2)c2[nH]ncc2c1` [Example 156, (5-Methyl-1H-indazol-7-yl)-(tetrahydropyran-4-yl)-amine], the EC50 is > 10000 nM. Take `CCOC(=O)Cc1cc(NC2CCCC2)c2[nH]c(-c3ccccc3)cc2c1` [Example 31, 2-[7-(Cyclopentyl)amino-2-phenyl-1H-indol-5-yl]-acetic acid ethyl ester]: the EC50 is 160 nM. Still for that read-out and setting: to `Cc1cc(N(C)C)c2[nH]c(-c3ccccn3)cc2c1` [Example 17, Dimethyl-[5-methyl-2-(pyridin-2-yl)-1H-indol-7-yl]-amine] belongs 540 nM; to `CC(Nc1cc(Oc2ccccc2)cc2cc(-c3ccccc3)[nH]c12)C(=O)O` (centres unmarked) [Example 111, 2-(5-Phenoxy-2-phenyl-1H-indol-7-yl)amino-propionic acid], 257 nM. For `O=S1(=O)CCN(CCc2cccc(-c3cc4cc(Cl)cc(NC5CCOCC5)c4[nH]3)c2)CC1` [Example 152, {5-Chloro-2-[3-(1,1-dioxo-thiomorpholin-4-yl)ethylphenyl]-1H-indol-7-yl}-(tetrahydropyran-4-yl)-amine], the EC50 is 240 nM. As for `COc1ccc(-c2n[nH]c3c(NC4CCCC4)cccc23)cc1` [Example 157, Cyclopentyl-[3-(4-methoxyphenyl)-1H-indazol-7-yl)-amine], the EC50 was found to be 900 nM. For `CCOC(=O)c1cc(NC2CCCC2)c2[nH]c(-c3ccccc3)cc2c1` [Example 28, 7-(Cyclopentyl)amino-2-phenyl-1H-indole-5-carboxylic acid ethyl ester], the EC50 came to 170 nM. Take `CN(C)Cc1cccc(-c2cc3cc(Cl)cc(NC4CCOCC4)c3[nH]2)c1` [Example 147, [5-Chloro-2-(3-dimethylaminomethylphenyl)-1H-indol-7-yl]-(tetrahydropyran-4-yl)-amine]: the EC50 is 460 nM. As to `O=S1(=O)CCN(Cc2cc(NC3CCCC3)c3[nH]c(-c4ccccc4)c(Br)c3c2)CC1` [Example 73, Cyclopentyl-(3-bromo-5-(1,1-dioxo-thiomorpholin-4-yl)methyl-2-phenyl-1H-indol-7-yl)-amine], the EC50 amounted to 120 nM. On to `Cc1cc(NC2CCCC2)c2[nH]ncc2c1` [Example 155, Cyclopentyl-(5-methyl-1H-indazol-7-yl)-amine], for which the EC50 was determined as 1300 nM.

For `Cc1cc(NCC2CCCC2)c2[nH]c(-c3ccccc3)cc2c1` [Example 42, Cyclopentylmethyl-(5-methyl-2-phenyl-1H-indol-7-yl)-amine], the EC50 was 40 nM.

`Cc1cc(NC2CCN(C)CC2)c2[nH]c(-c3ccccc3)cc2c1` [Example 44, (1-Methylpiperidin-4-yl)-(5-methyl-2-phenyl-1H-indol-7-yl)-amine]: the EC50 was 170 nM. On the same count and under the same terms, to `O=S1(=O)CCN(Cc2cc(NC3CCOCC3)c3[nH]c(-c4ccccc4)cc3c2)CC1` [Example 36, (Tetrahydropyran-4-yl)[2-phenyl-5-(1,1-dioxo-thiomorpholin-4-yl)methyl-1H-indol-7-yl]amine] belongs 63 nM; to `Cc1cc(NC2CCCC2)c2[nH]c(-c3cccc(C)n3)cc2c1` [Example 19, Cyclopentyl-[5-methyl-2-(6-methylpyridin-2-yl)-1H-indol-7-yl]-amine], 70 nM; to `Clc1cc(NC2CCC3(CC2)OCCO3)c2[nH]c(-c3ccccc3)cc2c1` [Example 53, (1,4-Dioxaspiro[4.5]decan-8-yl)-(5-chloro-2-phenyl-1H-indol-7-yl)-amine], 40 nM. In the case of `O=C1CCC(Nc2cc(Cl)cc3cc(-c4ccccc4)[nH]c23)CC1` [Example 21, 4-[(5-Chloro-2-phenyl-1H-indol-7-yl)amino]-cyclohexan-1-one], the concentration for a half-maximal effect (EC50) came out at 40 nM. As for `O=S1(=O)CCN(Cc2cc(NC3CCOCC3)c3[nH]c(-c4cccc(F)c4)cc3c2)CC1` [Example 75, (Tetrahydropyran-4-yl)-(5-(1,1-dioxo-thiomorpholin-4-yl)methyl-2-(3-fluorophenyl)-1H-indol-7-yl)-amine], the EC50 is 120 nM. The same measure, in the same setting: to `Clc1cc(NCC2CCOCC2)c2[nH]c(-c3ccccc3)cc2c1` [Example 50, (Tetrahydropyran-4-ylmethyl)-(5-chloro-2-phenyl-1H-indol-7-yl)-amine] belongs 43 nM.

As to `Clc1cc(NC2CCNCC2)c2[nH]c(-c3ccccc3)cc2c1` [Example 93, (5-Chloro-2-phenyl-1H-indol-7-yl)-piperidin-4-yl-amine], the concentration giving a half-maximal response (EC50) was found to be 160 nM. With `NC(=O)C1CCC(Nc2cc(Cl)cc3cc(-c4ccccc4)[nH]c23)CC1` (centres unmarked) [Example 104, 4-(5-Chloro-2-phenyl-1H-indol-7-yl)amino-cyclohexane-1-carboxylic acid amide], the EC50 is 80 nM.

Take `c1cc(NC2CCOCC2)c2[nH]ncc2c1` [Example 154, (Tetrahydropyran-4-yl)-(1H-indazol-7-yl)-amine]: the 50% effective concentration (EC50) is 4200 nM. Still for that read-out and setting: to `CC(C)(C)OC(=O)Nc1ccc(-c2cc3cc(Cl)cc(NC4CCCC4)c3[nH]2)cc1` [Example 78, t-Butyl N-[4-[5-chloro-7-(cyclopentylamino)-1H-indol-2-yl]phenyl]carbamate] belongs 210 nM; to `Cc1cc(NC2CCC(C(=O)O)CC2)c2[nH]c(-c3ccccc3)cc2c1` (centres unmarked) [Example 103, 4-(5-Methyl-2-phenyl-1H-indol-7-yl)amino-cyclohexane-1-carboxylic acid], 106 nM. On the same count and under the same terms, to `COC(=O)c1ccccc1-c1cc2cc(Cl)cc(NC3CCCC3)c2[nH]1` [Example 135, 2-(5-Chloro-7-cyclopentylamino-1H-indol-2-yl)-benzoic acid methyl ester] belongs 150 nM; to `CC(=O)Nc1ccc(-c2cc3cc(N4CCS(=O)(=O)CC4)cc(NCC4CCOCC4)c3[nH]2)cc1` [Example 87, (Tetrahydropyran-4-yl)methyl-{5-(1,1-dioxo-thiomorpholin-4-yl)-2-[4-(acetyl)aminophenyl]-1H-indol-7-yl}-amine], 600 nM; to `CN1CCC(Nc2cc(Cl)cc3cc(-c4ccccc4)[nH]c23)CC1` [Example 52, (1-Methylpiperidin-4-yl)-(5-chloro-2-phenyl-1H-indol-7-yl)-amine], 140 nM. Turning to `Clc1cc(NC2CCCCC2)c2[nH]c(-c3ccccc3)cc2c1` [Example 47, Cyclohexyl-(5-chloro-2-phenyl-1H-indol-7-yl)-amine], the concentration giving a half-maximal response (EC50) came to 50 nM. As for `c1cc(NC2CCCC2)c2[nH]ncc2c1` [Example 153, Cyclopentyl-(1H-indazol-7-yl)-amine], the EC50 stood at 2100 nM.

Staying with this test, now noted: doxorubicin; rat primary hepatocytes; 24-48 h; read-out: EC50, cell protective effects against doxorubicin in hepatocytes.
Regarding `O=C(O)Cc1cccc(-c2cc3cc(Cl)cc(NC4CCCC4)c3[nH]2)c1` [Example 128, 2-[3-(5-Chloro-7-cyclopentylamino-1-H-indol-2-yl)-phenyl]-acetic acid], the concentration giving a half-maximal response (EC50) worked out at 170 nM. The same measure, in the same setting: the value for `COC(=O)Cc1cccc(-c2cc3cc(Cl)cc(NC4CCOCC4)c3[nH]2)c1` [Example 132] was 430 nM; that for `COc1ccc(-c2n[nH]c3c(NC4CCOCC4)cccc23)cc1` [Example 158] was 2770 nM.

As a reminder, the EC50 is the concentration giving half of the maximal effect.
